In patent US7781591B2, “Substituted 3-cyanopyridines as protein kinase inhibitors” (Wyeth LLC, priority 2006, dated 2010):

Molecular target: T1, human PKCθ full length enzyme (Homo sapiens, UniProt Q04759)
T1 construct: human PKCθ full length enzyme (Panvera Cat# P2996); purchased Panvera P2996
Assay: PKCθ IMAP assay (fluorescence polarization)
Assay type: biochemical
Conditions: not given
Procedure: The reaction buffer was prepared by diluting the 5× stock reaction buffer and adding DTT to obtain a concentration of 3.0 mM. […] The final concentration of compound was 2× and 10% DMSO. DMSO was added to the rest of the master mix to increase the concentration to 10%. 10 μl of the master mix containing 10% DMSO was added to the rest of the wells on the plate except the 2nd column. 20 μl was transferred from the first column to the 2nd column. The compounds were serially diluted in 2:1 ratio starting from the 2nd column. A 2× ([…]) PKCθ solution was made in the reaction buffer. 10 μl of the PKCθ solution was added to every well to achieve these final concentrations: PKCθ—1 nM; ATP—6 μM; peptide—100 nM; DMSO—5%. Samples were incubated for 25 minutes at room temperature. The binding reagent was prepared by diluting the beads in 1× binding buffer to 800:1. 50 μl of the binding reagent was added to every well and incubated for 20 minutes. FP was measured using Envision2100 (PerkinElmer Life Sciences). Wells with no ATPs and wells with no enzymes were used as controls.

T1 sequence (Q04759 whole entry): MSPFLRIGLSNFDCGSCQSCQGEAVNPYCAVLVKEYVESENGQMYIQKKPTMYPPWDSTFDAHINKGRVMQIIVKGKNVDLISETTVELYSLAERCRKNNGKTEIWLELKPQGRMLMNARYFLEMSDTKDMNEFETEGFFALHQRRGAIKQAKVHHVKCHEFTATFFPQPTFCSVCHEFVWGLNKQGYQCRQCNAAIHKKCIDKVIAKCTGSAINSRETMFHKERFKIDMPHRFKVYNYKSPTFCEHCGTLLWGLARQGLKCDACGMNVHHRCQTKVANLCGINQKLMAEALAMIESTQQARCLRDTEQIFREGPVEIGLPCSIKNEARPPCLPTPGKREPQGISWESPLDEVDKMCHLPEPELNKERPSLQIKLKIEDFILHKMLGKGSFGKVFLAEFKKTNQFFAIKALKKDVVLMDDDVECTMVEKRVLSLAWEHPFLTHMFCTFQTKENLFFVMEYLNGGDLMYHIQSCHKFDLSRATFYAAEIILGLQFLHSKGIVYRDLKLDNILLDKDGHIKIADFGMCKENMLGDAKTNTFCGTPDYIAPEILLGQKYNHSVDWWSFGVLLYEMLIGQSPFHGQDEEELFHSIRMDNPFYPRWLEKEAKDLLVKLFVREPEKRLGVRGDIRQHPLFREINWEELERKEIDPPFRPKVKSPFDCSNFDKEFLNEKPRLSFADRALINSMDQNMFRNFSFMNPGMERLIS

With `COc1ccc(-c2cncc(C#N)c2-c2ccc3[nH]ccc3c2)cc1OC` [Compound 221, 5-(3,4-dimethoxyphenyl)-4-(1H-indol-5-yl)nicotinonitrile] the IC50 was 1750 nM.

Same assay, conditions: human PKCθ full length enzyme, IMAP; average value; read-out: IC50 PKCθ IMAP

In order of falling IC50:
1. Cc1c(Nc2c(C#N)cncc2-c2ccc(NC(=O)C(C)C)cc2)ccc2[nH]ccc12 [Compound 579, N-(4-{5-cyano-4-[(4-methyl-1H-indol-5-yl)amino]pyridin-3-yl}phenyl)-2-methylpropanamide]  4730 nM
2. COc1ccc(-c2cncc(C#N)c2Nc2ccc3[nH]ccc3c2)cc1OCCN(CCO)CCO [Compound 237, 5-(3-{2-[bis(2-hydroxyethyl)amino]ethoxy}-4-methoxyphenyl)-4-(1H-indol-5-ylamino)nicotinonitrile]  4320 nM
3. COc1ccc(-c2cncc(C#N)c2N[C@H]2CC[C@H](N)CC2)cc1OC [Compound 524, 4-[(trans-4-aminocyclohexyl)amino]-5-(3,4-dimethoxyphenyl)nicotinonitrile]  4100 nM
4. N#Cc1cncc(-c2cncnc2)c1Nc1ccc2[nH]ccc2c1 [Compound 265, 4-(1H-indol-5-ylamino)-5-pyrimidin-5-ylnicotinonitrile]  3860 nM
5. N#Cc1cncc(-c2cccc(-c3ccc(C(=O)NCCCO)cc3)c2)c1Nc1ccc2[nH]ccc2c1 [Compound 210, 3′-[5-cyano-4-(1H-indol-5-ylamino)pyridin-3-yl]-N-(3-hydroxypropyl)biphenyl-4-carboxamide]  2580 nM
6. N#Cc1cncc(-c2cccc(-c3ccc(C(=O)NCc4ccncc4)cc3)c2)c1Nc1ccc2[nH]ccc2c1 [Compound 214, 3′-[5-cyano-4-(1H-indol-5-ylamino)pyridin-3-yl]-N-(pyridin-4-ylmethyl)biphenyl-4-carboxamide]  250 nM
7. Cc1c(Nc2c(C#N)cncc2-c2cnc3ccccc3c2)ccc2[nH]ccc12 [Compound 589, 4-[(4-methyl-1H-indol-5-yl)amino]-5-quinolin-3-ylnicotinonitrile]  191 nM
8. COc1ccc(-c2cncc(C#N)c2Nc2ccc3[nH]ccc3c2)cc1OCCN1CCSCC1 [Compound 233, 4-(1H-indol-5-ylamino)-5-[4-methoxy-3-(2-thiomorpholin-4-ylethoxy)phenyl]nicotinonitrile]  180 nM
9. Cc1c(Nc2c(C#N)cncc2-c2cccnc2Cl)ccc2[nH]ccc12 [Compound 471, 2′-chloro-4-[(4-methyl-1H-indol-5-yl)amino]-3,3′-bipyridine-5-carbonitrile]  156 nM
10. COCCNC(=O)c1ccc(-c2cncc(C#N)c2Nc2cccc3[nH]ccc23)cc1 [Compound 330, 4-[5-cyano-4-(1H-indol-4-ylamino)pyridin-3-yl]-N-(2-methoxyethyl)benzamide]  130 nM
11. Cc1ccc(-c2cccc(-c3cncc(C#N)c3Nc3ccc4[nH]ccc4c3)c2)cc1 [Compound 128, 4-(1H-indol-5-ylamino)-5-(4′-methylbiphenyl-3-yl)nicotinonitrile]  130 nM
12. Cc1c(Nc2c(C#N)cncc2-c2cnc(N(C)C)nc2)ccc2[nH]ccc12 [Compound 513, 5-[2-(dimethylamino)pyrimidin-5-yl]-4-[(4-methyl-1H-indol-5-yl)amino]nicotinonitrile]  125 nM
13. N#Cc1cncc(-c2ccc(Br)cc2)c1Nc1ccc2[nH]ccc2c1 [Compound 116, 5-(4-bromophenyl)-4-(1H-indol-5-ylamino)nicotinonitrile]  70 nM
14. Cc1c(Nc2c(C#N)cncc2-c2cc3cc(CN4CCN(C(=O)OC(C)(C)C)CC4)ccc3o2)ccc2[nH]ccc12 [Compound 536, tert-butyl 4-[(2-{5-cyano-4-[(4-methyl-1H-indol-5-yl)amino]pyridin-3-yl}-1-benzofuran-5-yl)methyl]piperazine-1-carboxylate]  58 nM
15. N#Cc1cncc(-c2ccc3[nH]ccc3c2)c1Nc1ccc2[nH]ccc2c1 [Compound 263, 5-(1H-indol-5-yl)-4-(1H-indol-5-ylamino)nicotinonitrile]  50 nM
16. Cc1c(Nc2c(C#N)cncc2-c2cccc3[nH]ccc23)ccc2[nH]ccc12 [Compound 595, 5-(1H-indol-4-yl)-4-(4-methyl-1H-indol-5-ylamino)nicotinonitrile]  46 nM
17. CCN(CC)Cc1ccc(-c2cncc(C#N)c2Nc2ccc3[nH]ccc3c2C)o1 [Compound 406, 5-{5-[(diethylamino)methyl]-2-furyl}-4-[(4-methyl-1H-indol-5-yl)amino]nicotinonitrile]  42 nM
18. COc1ccc(COC(=O)Nc2ccc(-c3cncc(C#N)c3Nc3ccc4[nH]ccc4c3C)cc2F)cc1 [Compound 528, 4-methoxybenzyl (4-{5-cyano-4-[(4-methyl-1H-indol-5-yl)amino]pyridin-3-yl}-2-fluorophenyl)carbamate]  40 nM
19. COc1cccc(-c2cncc(C#N)c2Nc2ccc3[nH]ccc3c2C)c1 [Compound 558, 5-(3-methoxyphenyl)-4-[(4-methyl-1H-indol-5-yl)amino]nicotinonitrile]  36 nM
20. Cc1c(Nc2c(C#N)cncc2-c2ccncc2)ccc2[nH]ccc12 [Compound 467, 4-[(4-methyl-1H-indol-5-yl)amino]-3,4′-bipyridine-5-carbonitrile]  36 nM
21. COc1ccc(-c2cncc(C#N)c2Nc2cccc3[nH]ccc23)cc1OCCNCCO [Compound 249, 5-(3-{2-[(2-hydroxyethyl)amino]ethoxy}-4-methoxyphenyl)-4-(1H-indol-4-ylamino)nicotinonitrile]  30 nM
22. Cc1c(Nc2c(C#N)cncc2-c2ccc(NC(=O)NC3CC3)cc2)ccc2[nH]ccc12 [Compound 566, 1-(4-{5-cyano-4-[(4-methyl-1H-indol-5-yl)amino]pyridin-3-yl}phenyl)-3-cyclopropylurea]  23 nM
23. N#Cc1cncc(-c2cccc(OC[C@@H](N)Cc3ccccc3)c2)c1Nc1cccc2[nH]ccc12 [Compound 366, 5-(3-{[(2S)-2-amino-3-phenylpropyl]oxy}phenyl)-4-(1H-indol-4-ylamino)nicotinonitrile]  20 nM
24. COc1ccc(-c2cncc(C#N)c2Nc2cnc3[nH]ccc3c2Cl)cc1OC [Compound 522, 4-[(4-chloro-1H-pyrrolo[2,3-b]pyridin-5-yl)amino]-5-(3,4-dimethoxyphenyl)nicotinonitrile]  20 nM
25. COc1ccccc1-c1cncc(C#N)c1Nc1cccc2[nH]ccc12 [Compound 324, 4-(1H-indol-4-ylamino)-5-(2-methoxyphenyl)nicotinonitrile]  20 nM
26. Cc1c(Nc2c(C#N)cncc2-c2ccc3occc3c2)ccc2[nH]ccc12 [Compound 591, 5-(1-benzofuran-5-yl)-4-[(4-methyl-1H-indol-5-yl)amino]nicotinonitrile]  19.7 nM
27. Cc1c(Nc2c(C#N)cncc2-c2ccsc2)ccc2[nH]ccc12 [Compound 562, 4-[(4-methyl-1H-indol-5-yl)amino]-5-(3-thienyl)nicotinonitrile]  12 nM
28. CN1CCN(CCOc2ccc(-c3cncc(C#N)c3Nc3cccc4[nH]ccc34)cc2)CC1 [Compound 335, 4-(1H-indol-4-ylamino)-5-{4-[2-(4-methylpiperazin-1-yl)ethoxy]phenyl}nicotinonitrile]  10 nM
29. Cc1c(Nc2c(C#N)cncc2-c2ccc(OCCNCc3ccccn3)cc2)ccc2[nH]ccc12 [Compound 432, 4-[(4-methyl-1H-indol-5-yl)amino]-5-(4-{2-[(pyridin-2-ylmethyl)amino]ethoxy}phenyl)nicotinonitrile]  9 nM
30. COc1cc(-c2cncc(C#N)c2Nc2ccc3[nH]ccc3c2C)ccc1OCCN(C)C [Compound 345, 5-{4-[2-(dimethylamino)ethoxy]-3-methoxyphenyl}-4-[(4-methyl-1H-indol-5-yl)amino]nicotinonitrile]  7 nM
31. Cc1c(Nc2c(C#N)cncc2-c2csc(C=O)c2)ccc2[nH]ccc12 [Compound 516, 5-(5-formyl-3-thienyl)-4-[(4-methyl-1H-indol-5-yl)amino]nicotinonitrile]  5 nM
32. Cc1c(Nc2c(C#N)cncc2-c2ccc(OCCN3CCN(c4ccncc4)CC3)cc2)ccc2[nH]ccc12 [Compound 431, 4-[(4-methyl-1H-indol-5-yl)amino]-5-{4-[2-(4-pyridin-4-ylpiperazin-1-yl)ethoxy]phenyl}nicotinonitrile]  5 nM
33. Cc1c(Nc2c(C#N)cncc2-c2cc3cc(CNCc4ccccc4)ccc3s2)ccc2[nH]ccc12 [Compound 367, 5-{5-[(benzylamino)methyl]-1-benzothien-2-yl}-4-[(4-methyl-1H-indol-5-yl)amino]nicotinonitrile]  3 nM
34. Cc1c(Nc2c(C#N)cncc2-c2ccc(OCCNCC3CCN(C)CC3)cc2)ccc2[nH]ccc12 [Compound 421, 4-[(4-methyl-1H-indol-5-yl)amino]-5-[4-(2-{[(1-methylpiperidin-4-yl)methyl]amino}ethoxy)phenyl]nicotinonitrile]  3 nM
35. N#Cc1cncc(-c2cc3cc(CNCCCO)ccc3s2)c1Nc1cccc2[nH]ccc12 [Compound 275, 5-(5-{[(3-hydroxypropyl)amino]methyl}-1-benzothien-2-yl)-4-(1H-indol-4-ylamino)nicotinonitrile]  2 nM
36. Cc1c(Nc2c(C#N)cncc2-c2cc3cc(CNCC4CCN(C)CC4)ccc3o2)ccc2[nH]ccc12 [Compound 391, 4-[(4-methyl-1H-indol-5-yl)amino]-5-[5-({[(1-methylpiperidin-4-yl)methyl]amino}methyl)-1-benzofuran-2-yl]nicotinonitrile]  1 nM
